Assays:
[1] = target: T1, recombinant human norepinephrine transporter expressed in either HEK293 or MDCK cells (Homo sapiens, UniProt P23975); assay: Norepinephrine functional uptake assay for human reuptake transporter; assay type: cell-based; conditions: functional uptake of norepinephrine
T1 construct: expressed in transfected cells; host or cells: HEK293 or MDCK
Experimental: (§1) Compounds were initially tested at 10 μM in duplicate.
The cells were plated before the assay. Test compound and/or vehicle was preincubated with cells in modified HEPES buffer pH 7.1 or pH 7.4 for 20 minutes at 18 to 25° C. […] After the cells were washed to remove [^3H]norepinephrine not internalized, the cells were lysed, and the amount of tritium in the cell lysate was measured using a liquid scintillation counter to determine [^3H]norepinephrine uptake. Non-specific binding of tritium was measured in a control reaction containing […] (or […]), and was subtracted from the counts for assays to correct for non-specific binding of tritium. Reduction of [^3H]norepinephrine uptake by 50 percent or more (≧50%) relative to an uninhibited control reaction indicates significant inhibitory activity.

[2] = target: T2, recombinant human serotonin transporter expressed in HEK-293 cells (Homo sapiens, UniProt P31645); assay: Serotonin functional uptake assay for human reuptake transporter; assay type: cell-based; conditions: functional uptake of serotonin; read-out: hSERT (IC50 nM)
T2 construct: expressed in transfected cells; host or cells: HEK-293
T2 sequence (P31645 whole entry): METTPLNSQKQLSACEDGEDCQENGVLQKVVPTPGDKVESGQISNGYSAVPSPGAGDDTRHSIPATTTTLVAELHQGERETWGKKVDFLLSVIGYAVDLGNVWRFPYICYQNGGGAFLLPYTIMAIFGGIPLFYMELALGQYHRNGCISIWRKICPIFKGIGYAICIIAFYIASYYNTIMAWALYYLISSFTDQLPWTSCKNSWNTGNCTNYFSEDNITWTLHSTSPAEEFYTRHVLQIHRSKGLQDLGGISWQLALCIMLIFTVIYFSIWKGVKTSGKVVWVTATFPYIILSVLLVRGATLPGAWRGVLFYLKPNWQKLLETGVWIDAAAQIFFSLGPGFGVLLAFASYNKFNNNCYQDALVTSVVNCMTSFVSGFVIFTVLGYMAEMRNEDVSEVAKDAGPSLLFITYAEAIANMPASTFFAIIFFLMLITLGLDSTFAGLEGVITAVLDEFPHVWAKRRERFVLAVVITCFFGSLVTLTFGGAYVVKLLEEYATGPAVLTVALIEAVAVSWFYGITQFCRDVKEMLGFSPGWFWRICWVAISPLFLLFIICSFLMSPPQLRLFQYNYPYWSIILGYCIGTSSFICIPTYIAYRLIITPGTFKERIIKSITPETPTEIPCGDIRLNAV
Experimental: as §1
HEK-293 cells expressing human serotonin transporter were plated before the assay. […] Cells with internalized [^3H]serotonin were washed and the amount of tritium taken into cells is counted using a liquid scintillation counter to determine [^3H]serotonin uptake. Non-specific binding of tritium was measured in a control reaction containing […], and was subtracted from the counts for assays to correct for non-specific binding of tritium. Reduction of [^3H]serotonin uptake by 50 percent or more (≧50%) relative to an uninhibited control reaction indicates significant inhibitory activity.

[3] = target: T3, recombinant human dopamine transporter expressed in either CHO-K1 or HEK293 cells (Homo sapiens, UniProt Q01959); assay: Dopamine functional uptake assay for human reuptake transporter; assay type: cell-based; conditions: functional uptake of dopamine
T3 construct: expressed in transfected cells; host or cells: CHO-K1 or HEK293
T3 sequence (Q01959 whole entry): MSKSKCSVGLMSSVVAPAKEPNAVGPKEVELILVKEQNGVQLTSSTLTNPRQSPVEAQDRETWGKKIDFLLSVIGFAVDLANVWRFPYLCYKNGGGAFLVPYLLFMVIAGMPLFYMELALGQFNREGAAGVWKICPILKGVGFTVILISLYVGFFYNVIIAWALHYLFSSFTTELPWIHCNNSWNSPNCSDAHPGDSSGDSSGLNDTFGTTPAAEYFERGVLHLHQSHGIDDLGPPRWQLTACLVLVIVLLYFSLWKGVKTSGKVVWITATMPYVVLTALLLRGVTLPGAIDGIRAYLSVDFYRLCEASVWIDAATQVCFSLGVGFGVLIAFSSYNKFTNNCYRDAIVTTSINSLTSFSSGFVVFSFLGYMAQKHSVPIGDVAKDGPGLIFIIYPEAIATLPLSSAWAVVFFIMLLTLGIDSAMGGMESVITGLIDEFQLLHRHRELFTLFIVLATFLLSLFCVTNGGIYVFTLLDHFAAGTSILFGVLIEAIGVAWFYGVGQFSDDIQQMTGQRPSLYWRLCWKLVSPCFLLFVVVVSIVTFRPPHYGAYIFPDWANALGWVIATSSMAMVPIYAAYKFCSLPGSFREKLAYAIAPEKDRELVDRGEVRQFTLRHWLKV
Experimental: as §1
Either CHO-K1 or HEK293 cells expressing human recombinant dopamine transporter were plated before the assay. Test compound and/or vehicle was preincubated with cells in modified HEPES buffer pH 7.1 or pH 7.4 for 20 minutes at 18 to 25° C. and 50 nM [^3H]dopamine was then added for an additional timed incubation period (10 to 30 minutes). After washing the cells to remove [^3H]dopamine not internalized, the cells were lysed, and the amount of tritium in the lysate was measured using a liquid scintillation counter to determine [^3H]dopamine uptake. Non-specific binding of tritium was measured in a control reaction containing 10 μM nomifensine, and was subtracted from the counts for assays to correct for non-specific binding of tritium. Reduction of [^3H]dopamine uptake by 50 percent or more (≧50%) relative to an uninhibited control reaction indicates significant inhibitory activity.

serotonin uptake sites = serotonin uptake sites (Homo sapiens, UniProt P31645); conditions: compared with the racemic compound; cited from earlier work
Chain of serotonin uptake sites (P31645 whole entry): as the sequence (P31645 whole entry) above

[4] = in vivo; cited from earlier work

T1 sequence (P23975 whole entry): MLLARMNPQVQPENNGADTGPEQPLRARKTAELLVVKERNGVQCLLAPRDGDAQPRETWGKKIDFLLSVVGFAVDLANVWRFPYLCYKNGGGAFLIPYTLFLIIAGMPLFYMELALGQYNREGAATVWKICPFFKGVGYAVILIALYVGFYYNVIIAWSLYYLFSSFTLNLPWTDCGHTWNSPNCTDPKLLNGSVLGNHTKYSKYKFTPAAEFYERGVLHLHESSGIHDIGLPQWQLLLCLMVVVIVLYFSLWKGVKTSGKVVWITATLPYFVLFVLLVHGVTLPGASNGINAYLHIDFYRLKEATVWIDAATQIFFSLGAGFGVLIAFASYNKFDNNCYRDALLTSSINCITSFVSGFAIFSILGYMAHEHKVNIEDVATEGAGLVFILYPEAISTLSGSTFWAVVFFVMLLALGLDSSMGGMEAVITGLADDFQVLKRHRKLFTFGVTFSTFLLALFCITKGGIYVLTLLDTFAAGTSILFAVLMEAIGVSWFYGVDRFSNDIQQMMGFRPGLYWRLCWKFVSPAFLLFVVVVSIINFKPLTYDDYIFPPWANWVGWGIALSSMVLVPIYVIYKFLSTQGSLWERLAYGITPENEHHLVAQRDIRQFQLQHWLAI

Structure (SMILES)	hNET (IC50 nM) [1]	IC50 [2] [nM]	hDAT (IC50 nM) [3]	affinity for the serotonin uptake sites (serotonin uptake sites)	immobility in the tail suspension test [4]
Clc1ccc(C2(C3CCNC3)CCCCC2)cc1Cl (single isomer, unassigned) [Compound 1]	+++ (IC50 < 10 nM)	< 1	++ (IC50 ≦ 100 nM)	–	–
Clc1ccc(C2(C3CCNC3)CCCCC2)cc1Cl (single isomer, unassigned) [Compound 2]	++ (IC50 ≦ 100 nM)	< 100	++ (IC50 ≦ 100 nM)	–	–
Clc1ccc(C2(C3CCNC3)CCCC2)cc1Cl (single isomer, unassigned) [Compound 5]	++ (IC50 ≦ 100 nM)	< 100	++ (IC50 ≦ 100 nM)	–	–
Clc1ccc(C2(C3CCNC3)CCCC2)cc1Cl (single isomer, unassigned) [Compound 6]	++ (IC50 ≦ 100 nM)	< 10	++ (IC50 ≦ 100 nM)	–	–
Clc1ccc(C2(C3CCNC3)CCC2)cc1Cl (single isomer, unassigned) [Compound 7]	++ (IC50 ≦ 100 nM)	< 100	+++ (IC50 < 10 nM)	–	–
Clc1ccc(C2(C3CCNC3)CCC2)cc1Cl (single isomer, unassigned) [Compound 8]	++ (IC50 ≦ 100 nM)	< 100	++ (IC50 ≦ 100 nM)	–	–
c1ccc2cc(C3(C4CCNC4)CCCCC3)ccc2c1 (single isomer, unassigned) [Compound 9]	+ (100 nM < IC50 ≦ 500 nM)	< 10	++ (IC50 ≦ 100 nM)	–	–
c1ccc2cc(C3(C4CCNC4)CCCCC3)ccc2c1 (single isomer, unassigned) [Compound 10]	++ (IC50 ≦ 100 nM)	< 1	++ (IC50 ≦ 100 nM)	–	–
c1ccc2cc(C3(C4CCNC4)CCCC3)ccc2c1 (single isomer, unassigned) [Compound 11]	+++ (IC50 < 10 nM)	< 1	+++ (IC50 < 10 nM)	–	–
c1ccc2cc(C3(C4CCNC4)CCCC3)ccc2c1 (single isomer, unassigned) [Compound 12]	++++ (IC50 < 1 nM)	< 1	++ (IC50 ≦ 100 nM)	–	–
c1ccc2cc(C3(C4CCNC4)CCC3)ccc2c1 (single isomer, unassigned) [Compound 13]	++ (IC50 ≦ 100 nM)	< 100	++ (IC50 ≦ 100 nM)	–	–
c1ccc2cc(C3(C4CCNC4)CCC3)ccc2c1 (single isomer, unassigned) [Compound 14]	++ (IC50 ≦ 100 nM)	< 10	++ (IC50 ≦ 100 nM)	–	–
Clc1ccc([C@@]23CNC[C@@H]2C3)cc1Cl (single isomer, unassigned) [DOV 21,947, (+)-1-(3,4-dichlorophenyl)-3-azabicyclo[3.1.0]hexane]	–	–	–	significantly greater affinity	dose-dependent reduction in immobility
CN1CCC(C2(c3ccc(Cl)c(Cl)c3)CCCCC2)C1 (centres unmarked) [Compound 3]	+ (100 nM < IC50 ≦ 500 nM)	100 to 500	++ (IC50 ≦ 100 nM)	–	–
CN1CCC(C2(c3ccc(Cl)c(Cl)c3)CCCCC2)C1 (centres unmarked) [Compound 4]	− (IC50 > 500 nM)	> 500	+++ (IC50 < 10 nM)	–	–
Clc1ccc(C2(C3CCNC3)CCOCC2)cc1Cl (centres unmarked) [Compound 15]	++ (IC50 ≦ 100 nM)	< 100	++ (IC50 ≦ 100 nM)	–	–

Structure (SMILES)	hNET (IC50 nM) [1]	IC50 [2] [nM]	hDAT (IC50 nM) [3]	affinity for the serotonin uptake sites (serotonin uptake sites)	immobility in the tail suspension test [4]
Clc1ccc(C2(C3CCNC3)CCOCC2)cc1Cl (centres unmarked) [Compound 16]	+++ (IC50 < 10 nM)	< 10	+++ (IC50 < 10 nM)	–	–
C[C@]1(O)CC[C@@](c2ccc(Cl)c(Cl)c2)([C@H]2CCNC2)CC1 [Compound 17]	+++ (IC50 < 10 nM)	< 10	++ (IC50 ≦ 100 nM)	–	–
C[C@]1(O)CC[C@@](c2ccc(Cl)c(Cl)c2)([C@@H]2CCNC2)CC1 [Compound 18]	+++ (IC50 < 10 nM)	< 10	++ (IC50 ≦ 100 nM)	–	–
C[C@]1(O)CC[C@](c2ccc(Cl)c(Cl)c2)([C@@H]2CCNC2)CC1 [Compound 19]	++ (IC50 ≦ 100 nM)	< 10	+++ (IC50 < 10 nM)	–	–
C[C@]1(O)CC[C@](c2ccc(Cl)c(Cl)c2)([C@H]2CCNC2)CC1 [Compound 20]	++ (IC50 ≦ 100 nM)	< 10	+++ (IC50 < 10 nM)	–	–
O[C@H]1CC[C@@](c2ccc(Cl)c(Cl)c2)([C@H]2CCNC2)CC1 [Compound 21]	+++ (IC50 < 10 nM)	< 10	++ (IC50 ≦ 100 nM)	–	–
O[C@H]1CC[C@@](c2ccc(Cl)c(Cl)c2)([C@@H]2CCNC2)CC1 [Compound 22]	+++ (IC50 < 10 nM)	< 10	+++ (IC50 < 10 nM)	–	–
O[C@H]1CC[C@](c2ccc(Cl)c(Cl)c2)([C@H]2CCNC2)CC1 [Compound 23]	+++ (IC50 < 10 nM)	< 10	+++ (IC50 < 10 nM)	–	–
O[C@H]1CC[C@](c2ccc(Cl)c(Cl)c2)([C@@H]2CCNC2)CC1 [Compound 24]	++++ (IC50 < 1 nM)	< 1	+++ (IC50 < 10 nM)	–	–
CO[C@]1(C)CC[C@](c2ccc(Cl)c(Cl)c2)([C@H]2CCNC2)CC1 [Compound 25]	++ (IC50 ≦ 100 nM)	< 10	+++ (IC50 < 10 nM)	–	–
CO[C@]1(C)CC[C@](c2ccc(Cl)c(Cl)c2)([C@@H]2CCNC2)CC1 [Compound 26]	+++ (IC50 < 10 nM)	< 100	+++ (IC50 < 10 nM)	–	–
CO[C@]1(C)CC[C@@](c2ccc(Cl)c(Cl)c2)([C@@H]2CCNC2)CC1 [Compound 27]	+++ (IC50 < 10 nM)	< 10	++ (IC50 ≦ 100 nM)	–	–
CO[C@]1(C)CC[C@@](c2ccc(Cl)c(Cl)c2)([C@H]2CCNC2)CC1 [Compound 28]	+++ (IC50 < 10 nM)	< 100	++ (IC50 ≦ 100 nM)	–	–
O[C@@]1(C2(c3ccc(Cl)c(Cl)c3)CCCC2)CCNC1 [Compound 29]	+++ (IC50 < 10 nM)	< 10	++ (IC50 ≦ 100 nM)	–	–
O[C@]1(C2(c3ccc(Cl)c(Cl)c3)CCCC2)CCNC1 [Compound 30]	++ (IC50 ≦ 100 nM)	< 100	++ (IC50 ≦ 100 nM)	–	–

From patent US9505716B2, “Pyrrolidine triple reuptake inhibitors” (SUNOVION PHARMACEUTICALS INC., priority 2009, dated 2016)
